Assay [1] deals with T1, Polyphosphate kinase 1 (PPK1) (Escherichia coli, UniProt P0A7B1).
T1 sequence (P0A7B1 2-688): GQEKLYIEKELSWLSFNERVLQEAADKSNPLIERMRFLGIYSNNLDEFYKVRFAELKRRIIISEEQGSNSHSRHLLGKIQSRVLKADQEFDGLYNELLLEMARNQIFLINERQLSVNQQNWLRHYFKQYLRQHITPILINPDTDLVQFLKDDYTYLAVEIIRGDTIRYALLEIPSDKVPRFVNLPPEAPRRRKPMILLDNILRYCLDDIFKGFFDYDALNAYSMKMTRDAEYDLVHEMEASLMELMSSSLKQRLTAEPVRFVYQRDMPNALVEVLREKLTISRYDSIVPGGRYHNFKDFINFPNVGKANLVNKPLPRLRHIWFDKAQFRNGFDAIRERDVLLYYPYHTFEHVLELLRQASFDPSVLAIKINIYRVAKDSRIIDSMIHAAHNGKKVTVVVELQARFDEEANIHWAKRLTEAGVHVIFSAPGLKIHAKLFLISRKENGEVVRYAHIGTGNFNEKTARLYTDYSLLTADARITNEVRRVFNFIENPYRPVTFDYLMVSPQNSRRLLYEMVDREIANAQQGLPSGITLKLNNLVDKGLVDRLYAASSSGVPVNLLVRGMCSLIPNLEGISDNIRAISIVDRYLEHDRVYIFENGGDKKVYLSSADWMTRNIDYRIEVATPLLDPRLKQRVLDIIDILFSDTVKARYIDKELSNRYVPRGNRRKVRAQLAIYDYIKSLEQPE
Description: SPR single-concentration response at […]. The format is binding.

The target of assay [2] is T1, Polyphosphate kinase 1 (PPK1). The assay is described as follows: SPR. Format: binding.

The values that follow come from PMC7301697 (Journal of Enzyme Inhibition and Medicinal Chemistry, 2020).

As for `COc1cc([C@@H]2c3cc4c(cc3[C@@H](O[C@@H]3O[C@@H]5CO[C@@H](C)O[C@H]5[C@H](O)[C@H]3O)[C@H]3COC(=O)[C@H]23)OCO4)cc(OC)c1O` [Etoposide], the “SPR single-concentration response at 100 μM (positive control)” value in assay [1] is given as 3.06 100RU/Da.

In general, Kd refers to the concentration at which binding is half-saturated. `O=[N+]([O-])c1ccc2nc(-c3ccc(Cl)cc3)[nH]c2c1` [compound 8, 8]: in assay [2], the affinity, expressed as Kd, was 85.8 µM.

For the compound `Cc1ccc(C(=O)Nc2ccc(Cl)cc2)cc1C(F)(F)F` [compound 17, 17], in assay [2], binding was characterised by a dissociation constant (Kd) of 84.6 µM. This Kd and that of the compound before are within 1.5-fold of each other.
